Source: article PMC8179002, “Inhibitors of thiol-mediated uptake” (Chemical Science, 2020)

System: pseudo-lentivectors that express the D614G mutant of the SARS-CoV-2 spike protein
Assay type: cell-based

CCN1C(=O)C2SSSSC1C(=O)N2CC(=O)O (centres unmarked) [compound 3]
Concentration at onset of inhibition of pseudo-lentivector entry: 50 µM

O=S1(=O)C[C@H](O)[C@H](O)CS1 [compound 16]
IC50 (read-out: IC50, inhibition of pseudo-lentivector entry): ~50 µM
